From US4261921A, “Process for preparation of a crystalline insecticidal pyrethroid enantiomer pair” (priority 1979, dated 1981)

Experiments:
[1] = test system: beet armyworm (Spodoptera exigua); experiment: Topical Application Test, beet armyworm (BAW); format: in vivo
Procedure: (§1) The compound of this invention was tested for insecticidal activity by applying to the insect appropriate amounts of a toxicant solution containing 5 mg/ml of toxicant in acetone. The tests were read twenty-four hours after application of the toxicant solution and the percent kill determined. The commercial insecticide permethrin, 3-phenoxybenzyl (+) cis-trans-3-(2,2-dichlorovinyl)-2,2-dimethylcyclopropanecarboxylate, was used as the standard for comparison. Relative potency, based on a value of 1.0 for permethrin, was determined by comparing the LD50 for the test compound with that for the standard. The insects employed include southern armyworm (Spodoptera eridania [Cram.]), cabbage looper (Trichoplusia ni [Hubner]), Mexican bean beetle (Epilachna varivestis Muls.), beet armyworm (Spodoptera exigua [Hubner]), milkweed bug (Oncopeltus faciatus [Dallas]), tobacco budworm (Heliothis virescens [Fabricius]), and corn earworm (Heliothis zea [Boddle]).

[2] = test system: corn earworm (Heliothis zea); experiment: Topical Application Test, corn earworm (CEW); format: in vivo
Procedure: as §1

[3] = test system: cabbage looper (Trichoplusia ni); experiment: Topical Application Test, cabbage looper (CL); format: in vivo
Procedure: as §1

[4] = test system: Mexican bean beetle (Epilachna varivestis); experiment: Topical Application Test, Mexican bean beetle (MBB); format: in vivo
Procedure: as §1

[5] = test system: milkweed bug (Oncopeltus fasciatus); experiment: Topical Application Test, milkweed bug (MWB); format: in vivo
Procedure: as §1

[6] = test system: southern armyworm (Spodoptera eridania); experiment: Topical Application Test, southern armyworm (SAW); format: in vivo; conditions: LD50 compared with permethrin = 1.0
Procedure: as §1

[7] = test system: tobacco budworm (Heliothis virescens); experiment: Topical Application Test, tobacco budworm (TBW); format: in vivo; conditions: LD50 compared with permethrin = 1.0
Procedure: as §1

[8] = test system: Mexican bean beetle (Epilachna varivestis); experiment: Initial Contact (Foliar) Activity, Mexican bean beetle (MBB); format: in vivo
Procedure: (§2) The compound of the invention was dissolved in a solution of 90% water, 9.75% acetone; and 0.25% octylphenoxypolyethoxyethanol to give a solution having 512 ppm (w/w) active ingredient. Aliquots of this solution were diluted with an appropriate amount of water to provide solutions containing various concentrations of active ingredient. Test organisms and techniques were as follows: The activity against Mexican bean beetle (Epilachna varivestis Muls.) and southern armyworm (Spodoptera eridania [Cram.]) was evaluated by spraying the leaves of pinto bean plants with the test solution and infesting with 3rd instar larvae after the foliage had dried. The activity against the pea aphid (Acyrthosiphon pisum [Harris]) was evaluated on broad bean plants whose leaves were sprayed before infestation with adult aphids. To prevent escape of the insects from the test site, the complete test plant or the incised leaves were placed in capped paper cups. The tests were transferred to a holding room for an exposure period of 48 hours. At the end of this time the dead and living insects were counted, the LD50 was calculated, and the potency relative to the commercial insecticide permethrin, 3-phenoxybenzyl (+) cis,trans-3-(2,2-dichloroethenyl)-2,2-dimethylcyclopropanecarboxylate determined.

[9] = test system: pea aphid (Acyrthosiphon pisum); experiment: Initial Contact (Foliar) Activity, pea aphid (PA); format: in vivo
Procedure: as §2

[10] = test system: southern armyworm (Spodoptera eridania); experiment: Initial Contact (Foliar) Activity, southern armyworm (SAW); format: in vivo
Procedure: as §2

insects = experiment: Topical Application Test, all insects, comparison with permethrin in words; format: in vivo; conditions: topical tests, 24 h
Procedure: as §1

[11] = U.S. Pat. No. 4,136,195; cited from earlier work
[12] = LD50 compared with permethrin = 1.0

SMILES	Relative Potency [1, 12]	LD50 ([1]; read 24 h after application)	Relative Potency [2, 12]	LD50 ([2]; read 24 h after application)	Relative Potency [3, 12]	LD50 ([3]; read 24 h after application)	Relative Potency [4, 12]	LD50 ([4]; read 24 h after application)	Relative Potency [5, 12]	LD50 ([5]; read 24 h after application)	Relative Potency [6]	Relative Potency [7]	LC50 ([8]; Mexican bean beetle 3rd instar larvae, pinto bean, 48 h exposure)	Relative Potency ([8]; Mexican bean beetle, 48 h, relative to permethrin)	LC50 ([9]; pea aphid adults, broad bean, 48 h exposure)	Relative Potency ([9]; pea aphid, 48 h, relative to permethrin)	LC50 ([10]; southern armyworm 3rd instar larvae, pinto bean, 48 h exposure)	Relative Potency ([10]; southern armyworm, 48 h, relative to permethrin)	insecticidal activity compared with permethrin (insects)	activity among the disclosed diastereomers [11]
CC1(C)[C@H](C(=O)O[C@H](C#N)c2cccc(Oc3ccccc3)c2)[C@@H]1C=C(Cl)Cl (relative stereo) [compound of the invention, racemic mixture of (S)-(cyano)(3-phenoxyphenyl)methyl (1R,cis)-3-(2,2-dichloroethenyl)-2,2-dimethylcyclopropanecarboxylate and (R)-(cyano)(3-phenoxyphenyl)methyl (1S,cis)-3-(2,2-dichloroethenyl)-2,2-dimethylcyclopropanecarboxylate]	5.1	218.8 ng/insect	2.5	110.9 ng/insect	9.0	14.9 ng/insect	7.2	2.03 ng/insect	37.6	16.4 ng/insect	1.0-1.5	4.2-6.1	1.62-1.86 parts per million	5.3-8.8	1.39-21.15 parts per million	2.5-9.8	.22-.38 parts per million	9.8-16.1	substantially more active than permethrin	
CC1(C)[C@H](C(=O)O[C@H](C#N)c2cccc(Oc3ccccc3)c2)[C@@H]1C=C(Cl)Cl [1R,cis-α-S isomer, (S)-(cyano)(3-phenoxyphenyl)methyl (1R,cis)-3-(2,2-dichloroethenyl)-2,2-dimethylcyclopropanecarboxylate]																				the more active of the disclosed diastereomers
